Reference: patent publication US12728119B2, “Pharmaceutical composition for preventing or treating cancer comprising 3-ketoacyl CoA thiolase inhibitor and carnitine acylcarnitine carrier inhibitor” (NATIONAL CANCER CENTER, priority 2020, dated 2026)

Tested on: MIA PaCa-2 cells
Test: Xenograft tumor model
Format: in vivo, Balb/c-nu mice
Method: MIA PaCa-2 cells (1×10 7) in 100 μl PBS were subcutaneously inoculated into 6-8 weeks old Balb/c-nu mice (Orient, Seoul, Korea) using a 1 ml syringe. After one week, the mice were divided into three groups: a control group (solvent treatment), a KN713 40 mg/kg/100 μl treatment group, and a KN713 80 mg/kg/200 μl treatment group. KN713 was administered intraperitoneally once a day (for 49 days, 6 days/week, n=7). The primary tumor size was measured weekly using a caliper, and the tumor volume was calculated using the formula V=(A×B^2)/2 (V=volume (mm^3), A=long diameter, B=short diameter). This experiment was reviewed and approved by the Institutional Animal Care and Use Committee (IACUC) of the National Cancer Center Research Institute, which was established by the International Association for Accreditation of Laboratory Animals (It was accredited by AAALAC International).

## COc1ccc(CN2CCNCC2)c(OC)c1OC [KN713, trimetazidine]
KN713 40 mg/kg intraperitoneally once a day, column 3 (measured weekly), Control 148.59
  tumor size (tumor volume): 147.09 mm^3
KN713 40 mg/kg intraperitoneally once a day, column 4 (measured weekly), Control 448.52
  tumor size (tumor volume): 319.40 mm^3
KN713 40 mg/kg intraperitoneally once a day, column 5 (measured weekly), Control 748.89
  tumor size (tumor volume): 499.29 mm^3
KN713 40 mg/kg intraperitoneally once a day, column 6 (measured weekly), Control 944.41
  tumor size (tumor volume): 593.57 mm^3
KN713 40 mg/kg intraperitoneally once a day, column 7 (measured weekly), Control 1472.13
  tumor size (tumor volume): 790.38 mm^3
KN713 40 mg/kg intraperitoneally once a day, column 8 (measured weekly), Control 1709.54
  tumor size (tumor volume): 965.18 mm^3
KN713 80 mg/kg intraperitoneally once a day, column 3 (measured weekly), Control 148.59
  tumor size (tumor volume): 147.36 mm^3
KN713 80 mg/kg intraperitoneally once a day, column 4 (measured weekly), Control 448.52
  tumor size (tumor volume): 279.36 mm^3
KN713 80 mg/kg intraperitoneally once a day, column 5 (measured weekly), Control 748.89
  tumor size (tumor volume): 372.00 mm^3
KN713 80 mg/kg intraperitoneally once a day, column 6 (measured weekly), Control 944.41
  tumor size (tumor volume): 420.82 mm^3
KN713 80 mg/kg intraperitoneally once a day, column 7 (measured weekly), Control 1472.13
  tumor size (tumor volume): 589.49 mm^3
KN713 80 mg/kg intraperitoneally once a day, column 8 (measured weekly), Control 1709.54
  tumor size (tumor volume): 555.42 mm^3
Mouse model transplanted with MIA PaCa2, result in words
  tumor size: significantly suppressed
